Assay results reported in publication PMC5786798, “Discovery of New Inhibitors of Toxoplasma gondii via the Pathogen Box” (Antimicrobial Agents and Chemotherapy, 2018).

Legend:
[1] = Cytotoxicity evaluation on Vero cell cultures (UptiBlue viable cell counting assay, 72 h); assay type: cell-based; conditions: African green monkey, Vero cells, means from four values from two experiments
Description: The in vitro cytotoxicity of compounds was evaluated on Vero cell cultures by using 96-well plates, since these cells were used for T. gondii growth in our model. […] After 72 h, cytotoxicity was evaluated by using the UptiBlue viable cell counting assay (Interchim). […] Spectrophotometric measurements (FLUOstar Omega microplate reader; BMG Labtech, France) were made at 570 nm and corrected at 600 nm, and blank readings were made on the mean value of the seven negative-control wells. A sample was considered toxic when the cell viability was lower than 80%. […] For a visual control, the last well of each condition was fixed with cold methanol and stained with kit RAL 555 (RAL Diagnostics, France) and examined microscopically (AxioVert 200M; Zeiss, France) at a magnification of ×20 instead of being tested with UptiBlue.

[2] = system: T. gondii tachyzoites (RH strain, type I); test: Determination of IC50s, in vitro chemosensitivity of T. gondii (ELISA, 72 h); conditions: for selective antitoxoplasmic activity according to hit criteria: hit criteria IC50 <2 μM and SI >4; for IC50: T. gondii RH tachyzoites on Vero cells, 72 h, ELISA, 2-fold dilution series 2 to 0.015 μM, means from four values from two experiments
Toxoplasma gondii = conditions: effect against Toxoplasma; literature value, no reference given; cited from earlier work

For `FC(F)(F)c1cnc(Sc2nnc(-c3ccncc3)o2)c(Cl)c1` [MMV011765], which CC50 at 72 h [1] is on record?
The CC50 at 72 h was 9.48 µM.

For `COc1ccc(OC)c(NCc2ccc3nc(N)nc(N)c3c2Cl)c1` [MMV675968], which CC50 at 72 h [1] is on record?
The CC50 at 72 h was 5.5 µM.

For `O=C(Nc1ccc(N2CCNCC2)cc1)c1ccn2ncc(-c3cccc(Cl)c3)c2n1` [MMV022478], which CC50 at 72 h [1] is on record?
The CC50 at 72 h was 2.23 µM.

Which “selective antitoxoplasmic activity according to hit criteria” value [2] does the source give for `CN1CCC(c2cc(-c3ccncc3)c(-c3ccc(F)cc3)[nH]2)CC1` [MMV688703] here?
Its value is “not selective”.

What about the “selective antitoxoplasmic activity according to hit criteria” value ([2]; listed as MV688703) of the same compound?
The value was “did not show the criteria for inclusion as an active compound”.

With `CNC(=O)c1nn(C)c2c1C(C)(C)Cc1cnc(Nc3ccc(N4CCN(C)CC4)cc3)nc1-2` [MMV676602] as the compound, how does the CC50 at 72 h [1] read?
Its CC50 at 72 h is 3.3 µM.

With `O=C(Nc1nc(-c2ccccn2)cs1)c1cncn1-c1ccccc1` [MMV676512] as the compound, how does the CC50 at 72 h [1] read?
Its CC50 at 72 h is 3.61 µM.

Which CC50 at 72 h [1] does the source give for `CC(C)(C)[C@H]1CC[C@H](CC2=C(O)C(=O)c3ccccc3C2=O)CC1` [MMV689480, buparvaquone, reference compound] here?
Its CC50 at 72 h is 8.66 µM.

Which CC50 at 72 h [1] does the source give for `O=C(Nc1ccc(C(F)(F)F)c(C(F)(F)F)c1)c1cc(Cl)ccc1O` [MMV687807] here?
The CC50 at 72 h was 1.69 µM.

What does the source list for `c1ccc(-c2nc(NC3CCCCC3)cc(C3CC3)n2)nc1` [MMV021013]?
IC50 [2]: 1.12 ± 0.035 µM; IC50 ([2]; Toxoplasma gondii, Vero): < 2 µM; CC50 at 72 h [1]: 15.9 µM

Which IC50 (Toxoplasma gondii) does the source give for `OC(Cn1cncn1)(Cn1cncn1)c1ccc(F)cc1F` [fluconazole] here?
The IC50 was 3 µM.

Which IC50 ([2]; Toxoplasma gondii, Vero) does the source give for `CCc1nc(N)nc(N)c1-c1ccc(Cl)cc1` [PYR, pyrimethamine, reference compound] here?
Its IC50 is 1.17 ± 0.076 µM.

What about the CC50 at 72 h [1] of the same compound?
The CC50 at 72 h was 10.5 µM.

With `CCC(C)n1ncn(-c2ccc(N3CCN(c4ccc(OCC5COC(Cn6cncn6)(c6ccc(Cl)cc6Cl)O5)cc4)CC3)cc2)c1=O` (stereo not shown) [itraconazole] as the compound, how does the IC50 (Toxoplasma gondii) read?
Its IC50 is 0.5 µM.
